Results on 24 molecules are retold here after patent US10981894B2, “Melanocortin subtype-2 receptor (MC2R) antagonists and uses thereof” (Crinetics Pharmaceuticals, Inc., priority 2018, dated 2021).

The experiment deals with hMC2 receptor (Homo sapiens, UniProt Q01718). Briefly: hMC2 membrane binding assay ([125I]ACTH (1-39) Tyr23, SPA). Also on record: scale not given here. As to conditions: crude hMC2R membranes from CRE-bla-CHO-K1 cells expressing hMC2 receptor and hMRAP; [125I]ACTH (1-39) Tyr23 0.2 nM; 1.5 hours at room temperature; read-out: MC2R binding potency. Put shortly: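 CRE-bla-CHO-K1 membranes co-expressing hMC2 receptor and hMRAP, preincubated with WGA PVT SPA beads in pH 7.4 HEPES/MgCl2/CaCl2/0.2% BSA buffer. Compounds (typically 0–10,000 nM final) compete with 0.2 nM [125I]ACTH(1-39) Tyr23 for 1.5 h at room temperature. SPA counts give Ki by non-linear regression.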
Sequence of hMC2 receptor (Q01718 whole entry): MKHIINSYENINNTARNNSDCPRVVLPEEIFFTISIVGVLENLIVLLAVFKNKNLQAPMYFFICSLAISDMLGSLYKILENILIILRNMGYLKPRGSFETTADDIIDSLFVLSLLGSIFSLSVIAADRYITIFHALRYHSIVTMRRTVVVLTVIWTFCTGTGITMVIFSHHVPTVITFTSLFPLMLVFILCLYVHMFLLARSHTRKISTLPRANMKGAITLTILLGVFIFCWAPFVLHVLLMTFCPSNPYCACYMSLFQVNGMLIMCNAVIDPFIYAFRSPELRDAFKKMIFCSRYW
Sequence of hMC2 receptor (Q8TCY5 whole entry partner): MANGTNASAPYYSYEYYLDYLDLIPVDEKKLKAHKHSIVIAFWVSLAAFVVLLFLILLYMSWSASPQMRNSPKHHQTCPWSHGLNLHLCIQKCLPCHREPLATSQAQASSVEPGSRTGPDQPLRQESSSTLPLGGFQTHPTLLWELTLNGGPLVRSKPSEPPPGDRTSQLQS

Take `CCOc1ncccc1-c1ccc(N2CCN(C(=O)c3ccc(F)cc3C(F)(F)F)C[C@H]2CC)c(C(=O)N[C@@H]2CCNC2)c1F` [Compound 1-111, 3-(2-ethoxypyridin-3-yl)-6-[(2R)-2-ethyl-4-[4-fluoro-2-(trifluoromethyl)benzoyl]piperazin-1-yl]-2-fluoro-N-[(3R)-pyrrolidin-3-yl]benzamide]: the Ki was under 0.01 µM.

On to `CCOc1ccccc1-c1ccc(N2CCN(C(=O)c3ccccc3-c3ccc(CN)c(F)c3)C[C@H]2CC)c(C(=O)NCCN)c1` [Compound 1-26, N-(2-aminoethyl)-4-[(2R)-4-[4′-(aminomethyl)-3′-fluoro-[1,1′-biphenyl]-2-carbonyl]-2-ethylpiperazin-1-yl]-2′-ethoxy-[1,1′-biphenyl]-3-carboxamide], for which the Ki is under 0.01 µM.

On to `CCOc1ncccc1-c1ccc(N2CCN(C(=O)C3(c4ccc(F)cc4F)CCC3)C[C@H]2CC)c(C(=O)N[C@@H]2CCN(C)C2)n1` [Compound 1-371, 5-[(2R)-4-[1-(2,4-difluorophenyl)cyclobutanecarbonyl]-2-ethylpiperazin-1-yl]-2′-ethoxy-N-[(3R)-1-methylpyrrolidin-3-yl]-[2,3′-bipyridine]-6-carboxamide], for which the Ki is under 0.01 µM.

`CCOc1ncccc1-c1ccc(N2CCN(C(=O)c3ccc(Cl)cc3C)C[C@H]2CC)c(C(=O)NCCN)c1` [Compound 1-87, N-(2-aminoethyl)-2-[(2R)-4-(4-chloro-2-methylbenzoyl)-2-ethylpiperazin-1-yl]-5-(2-ethoxypyridin-3-yl)benzamide]: the Ki is under 0.01 µM.

As for `CCOc1ncccc1-c1ccc(N2CCN(C(=O)c3ccc(Cl)cc3C(F)(F)F)C[C@H]2CC)c(C(=O)N[C@@H]2CCN(C)C2)c1F` [Compound 1-199, 6-[(2R)-4-[4-chloro-2-(trifluoromethyl)benzoyl]-2-ethylpiperazin-1-yl]-3-(2-ethoxypyridin-3-yl)-2-fluoro-N-[(3R)-1-methylpyrrolidin-3-yl]benzamide], the Ki is under 0.01 µM.

Regarding `CCOc1ncccc1-c1ccc(N2CCN(C(=O)c3ccc(Cl)cc3C(F)(F)F)C[C@H]2CC)c(C(=O)NCCN)c1F` [Compound 1-69, N-(2-aminoethyl)-6-[(2R)-4-[4-chloro-2-(trifluoromethyl)benzoyl]-2-ethylpiperazin-1-yl]-3-(2-ethoxypyridin-3-yl)-2-fluorobenzamide], the Ki is under 0.01 µM.

For `CCOc1ccccc1-c1ccc(N2CCN(C(=O)C3(C(F)(F)F)CCC3)C[C@H]2CC)c(C(=O)N[C@@H]2CCN(C)C2)n1` [Compound 1-344, 6-(2-ethoxyphenyl)-3-[(2R)-2-ethyl-4-[1-(trifluoromethyl)cyclobutanecarbonyl]piperazin-1-yl]-N-[(3R)-1-methylpyrrolidin-3-yl]pyridine-2-carboxamide], the Ki is under 0.01 µM.

Regarding `CCOc1ncccc1-c1ccc(N2CCN(C(=O)N3CCc4cccc(C#N)c43)C[C@H]2CC)c(C(=O)N[C@@H]2CCN(C)C2)n1` [Compound 1-383, 5-[(2R)-4-(7-cyano-2,3-dihydro-1H-indole-1-carbonyl)-2-ethylpiperazin-1-yl]-2′-ethoxy-N-[(3R)-1-methylpyrrolidin-3-yl]-[2,3′-bipyridine]-6-carboxamide], the Ki is under 0.01 µM.

Consider `CCOc1ncccc1-c1ccc(N2CCN(C(=O)n3ccc4cc(F)cc(Cl)c43)C[C@H]2CC)c(C(=O)N[C@@H]2CCN(C)C2)n1` [Compound 1-425, 5-[(2R)-4-(7-chloro-5-fluoro-1H-indole-1-carbonyl)-2-ethylpiperazin-1-yl]-2′-ethoxy-N-[(3R)-1-methylpyrrolidin-3-yl]-[2,3′-bipyridine]-6-carboxamide], for which the Ki was under 0.01 µM.

On to `CCOc1cccnc1-c1ccc(N2CCN(C(=O)c3ccc(C(F)(F)F)cc3Cl)C[C@H]2CC)c(C(=O)NCCN)c1` [Compound 1-32, N-(2-aminoethyl)-2-[(2R)-4-[2-chloro-4-(trifluoromethyl)benzoyl]-2-ethylpiperazin-1-yl]-5-(3-ethoxypyridin-2-yl)benzamide], for which the Ki was in the range of 0.01 to 0.1 µM.

On to `CCOc1ncccc1-c1ccc(N2CCN(C(=O)n3ccc4cccc(C#N)c43)C[C@H]2CC)c(C(=O)N[C@@H]2CCN(C)C2)n1` [Compound 1-429, 5-[(2R)-4-(7-cyano-1H-indole-1-carbonyl)-2-ethylpiperazin-1-yl]-2′-ethoxy-N-[(3R)-1-methylpyrrolidin-3-yl]-[2,3′-bipyridine]-6-carboxamide], for which the Ki is under 0.01 µM.

Regarding `CCOc1ncccc1-c1ccc(N2CCN(C(=O)C3(c4ccccc4)CCC3)C[C@H]2CC)c(C(=O)N[C@@H]2CCN(C)C2)n1` [Compound 1-358, 2′-ethoxy-5-[(2R)-2-ethyl-4-(1-phenylcyclobutanecarbonyl)piperazin-1-yl]-N-[(3R)-1-methylpyrrolidin-3-yl]-[2,3′-bipyridine]-6-carboxamide], the Ki is under 0.01 µM.

In the case of `CC[C@@H]1CN(C(=O)c2ccc(C(F)(F)F)cc2Cl)CCN1c1ccc(-c2ccccc2F)cc1C(=O)NCCN` [Compound 1-4, N-(2-aminoethyl)-4-[(2R)-4-[2-chloro-4-(trifluoromethyl)benzoyl]-2-ethylpiperazin-1-yl]-2′-fluoro-[1,1′-biphenyl]-3-carboxamide], the Ki lay within 0.01 to 0.1 µM.

For `CCOc1ncccc1-c1ccc(N2CCN(C(=O)C34CCC(C(F)(F)F)(CC3)C4)C[C@H]2CC)c(C(=O)N[C@@H]2CCN(C)C2)n1` [Compound 1-385, 2′-ethoxy-5-[(2R)-2-ethyl-4-[4-(trifluoromethyl)bicyclo[2.2.1]heptane-1-carbonyl]piperazin-1-yl]-N-[(3R)-1-methylpyrrolidin-3-yl]-[2,3′-bipyridine]-6-carboxamide], the Ki was under 0.01 µM.

Take `CCOc1ncccc1-c1ccc(N2CCN(C(=O)O[C@H](c3ccccc3)C(F)(F)F)C[C@H]2CC)c(C(=O)N[C@@H]2CCNC2)n1` [Compound 1-351, (1R)-2,2,2-trifluoro-1-phenylethyl (3R)-4-(2′-ethoxy-6-{[(3R)-pyrrolidin-3-yl]carbamoyl}-[2,3′-bipyridin]-5-yl)-3-ethylpiperazine-1-carboxylate]: the Ki is under 0.01 µM.

For the molecule `CCOc1ccccc1-c1ccc(N2CCN(C(=O)c3ccc(OC)nc3C(F)(F)F)C[C@H]2CC)c(C(=O)N[C@@H]2CCN(C)C2)n1` [Compound 1-253, 6-(2-ethoxyphenyl)-3-[(2R)-2-ethyl-4-[6-methoxy-2-(trifluoromethyl)pyridine-3-carbonyl]piperazin-1-yl]-N-[(3R)-1-methylpyrrolidin-3-yl]pyridine-2-carboxamide], the Ki was under 0.01 µM.

Turning to `CC[C@@H]1CN(C(=O)c2ccc(C(F)(F)F)cc2Cl)CCN1c1ccc(-c2ccccc2OC)cc1C(=O)NCCN` [Compound 1-2, N-(2-aminoethyl)-4-[(2R)-4-[2-chloro-4-(trifluoromethyl)benzoyl]-2-ethylpiperazin-1-yl]-2′-methoxy-[1,1′-biphenyl]-3-carboxamide], the Ki is under 0.01 µM.

Consider `CCOc1ccccc1-c1ccc(N2CCN(C(=O)C3(C(F)(F)F)CCCC3)C[C@H]2CC)c(C(=O)N[C@@H]2CCN(C)C2)n1` [Compound 1-341, 6-(2-ethoxyphenyl)-3-[(2R)-2-ethyl-4-[1-(trifluoromethyl)cyclopentanecarbonyl]piperazin-1-yl]-N-[(3R)-1-methylpyrrolidin-3-yl]pyridine-2-carboxamide], for which the Ki was under 0.01 µM.

Consider `CCOc1ncccc1-c1ccc(N2CCN(C(=O)c3ccc(F)cc3C(F)F)C[C@H]2CC)c(C(=O)N[C@@H]2CCN(C)C2)n1` [Compound 1-279, 5-[(2R)-4-[2-(difluoromethyl)-4-fluorobenzoyl]-2-ethylpiperazin-1-yl]-2′-ethoxy-N-[(3R)-1-methylpyrrolidin-3-yl]-[2,3′-bipyridine]-6-carboxamide], for which the Ki was under 0.01 µM.

With `CCOc1ccccc1-c1ccc(N2CCN(C(=O)c3ccc(Cl)cc3C(F)F)C[C@H]2CC)c(C(=O)N[C@@H]2CCNC2)n1` [Compound 1-288, 3-[(2R)-4-[4-chloro-2-(difluoromethyl)benzoyl]-2-ethylpiperazin-1-yl]-6-(2-ethoxyphenyl)-N-[(3R)-pyrrolidin-3-yl]pyridine-2-carboxamide], the Ki was under 0.01 µM.

As for `CCOc1ncccc1-c1ccc(N2CCN(C(=O)C3(c4ccccc4)CCC3)C[C@H]2CC)c(C(=O)N[C@@H]2CCNC2)n1` [Compound 1-353, 2′-ethoxy-5-[(2R)-2-ethyl-4-(1-phenylcyclobutanecarbonyl)piperazin-1-yl]-N-[(3R)-pyrrolidin-3-yl]-[2,3′-bipyridine]-6-carboxamide], the Ki is under 0.01 µM.

For the molecule `CCOc1ccccc1-c1ccc(N2CCN(C(=O)OC(C(C)(C)C)C(F)(F)F)C[C@H]2CC)c(C(=O)N[C@@H]2CCNC2)n1` (stereo partly drawn) [Compound 1-348, 1,1,1-trifluoro-3,3-dimethylbutan-2-yl (3R)-4-[6-(2-ethoxyphenyl)-2-{[(3R)-pyrrolidin-3-yl]carbamoyl}pyridin-3-yl]-3-ethylpiperazine-1-carboxylate], the Ki is under 0.01 µM.

As to `CC[C@@H]1CN(C(=O)N2CCC[C@H]2C(C)(C)C)CCN1c1ccc(-c2ccccc2OC)nc1C(=O)N[C@@H]1CCNC1` [Compound 1-315, 3-[(2R)-4-[(2S)-2-tert-butylpyrrolidine-1-carbonyl]-2-ethylpiperazin-1-yl]-6-(2-methoxyphenyl)-N-[(3R)-pyrrolidin-3-yl]pyridine-2-carboxamide], the Ki is under 0.01 µM.

For the molecule `CCOc1ccc(C(=O)N2CCN(c3ccc(-c4cccnc4OCC)nc3C(=O)N[C@@H]3CCN(C)C3)[C@H](CC)C2)c(C(F)(F)F)n1` [Compound 1-243, 2′-ethoxy-5-[(2R)-4-[6-ethoxy-2-(trifluoromethyl)pyridine-3-carbonyl]-2-ethylpiperazin-1-yl]-N-[(3R)-1-methylpyrrolidin-3-yl]-[2,3′-bipyridine]-6-carboxamide], the Ki was under 0.01 µM.
